Values joined by “and” are separate entries in the source; they are usually repeats but may differ in a detail not shown here. Identical values can stand only once. Like-named read-outs stand apart in the source and are kept apart here.
Tests used:
Format in all cases: in vitro ADME
rat plasma protein = assay: Binding rate to plasma protein of rats (dialysis method)
Experimental: The binding rate of compound 77 of the present invention to plasma protein at a rat plasma concentration of 2 uM was evaluated by dialysis method.
Procedure: The DMSO stock solution of compound 77 (10 mM) or the positive control propranolol (USP) was added to 500 uL of blank plasma. The final concentration of test substance in the plasma was 2 uM, and the final concentration of the positive control was 1 uM, in triplicate. 300 uL of prepared plasma samples was added to the plasma chamber, and 500 uL of dialysis buffer was added to the buffer chamber (phosphate buffer solution PBS contained 100 mM sodium phosphate and 150 mM sodium chloride, PH 7.2), sealed, and incubated for 4 h while shaking at 100 rpm, 37° C. After incubation, 50 uL sample was taken from the plasma chamber and buffer chamber, and 50 uL of PBS was added to plasma chamber samples, and 50 uL of blank plasma was added to the buffer chamber samples. Immediately, 3-fold methanol solution containing internal standard was added, to precipitate plasma protein. After centrifugation, the supernatant was taken for LC/MS/MS analysis. The plasma protein binding rate was calculated according to the following formula: % free state=(peak area ratio in the buffer chamber/the peak area ratio in the plasma chamber)×%, % binding state=100%−% free state.

[1] = Bidirectional transmembrane transport and P-gp efflux in Caco-2 monolayer cell model; conditions: human
Experimental: (§1) The Caco-2 cell transport experiment was performed using compound 77 of the present invention as a representative example.
(§2) Main procedure: Caco-2 cells (ATCC, HTB-37) were cultured in high-glucose DMEM culture medium (Hyclone) containing 10% fetal calf serum (GIBCO) and penicillin-streptomycin (100 units/mL each) (Sigma). Cells were cultured at 37° C. in an incubator containing 5% CO2. In the transport experiment, Caco-2 cells were inoculated on a filter of a 12-well Transwell plate at a density of 2×10^5 cells/well (Coming Costar, catalog #3401, 1.12 cm^2, 0.4 um of pore size). After inoculation, the Caco-2 cells would form intact cell monolayers after 21 days, including P-gp efflux transporter expression and transepithelial cell resistance (TEER) formation. During the period, the culture medium was replaced once every other day. The volume of culture medium at the transwell membrane Apical Side (A) and Basolateral Side (B) were 0.5 mL and 1.5 mL, respectively. Before the transport experiment (day 21), the preheated HBSS buffer (137 mM NaCl, 4.17 mM NaHCO3, 0.34 mM Na2HPO4, 5.37 mM KCl, 0.44 mM KH2PO4, 1.26 mM CaCl2, 0.49 mM MgCl2, 0.41 mM MgSO4, 5.55 Mm D-Glucose, 10 mM HEPES, pH 7.4) was used firstly to wash Caco-2 cell monolayers for three times, and placed to at 37° C. for incubation for 30 minutes, then TEER values were determined using a cell resistometer (Millicell-ERS2) to confirm the integrity and compactness of the cell monolayers. When the HBSS buffer solution on the transmembrane A-side or B-side was replaced with the test compound, the transport experiment was started.
(§3) Finally, after incubation at 37° C. for 2 hours, the transport experiment was terminated and 50 uL of sample solution was taken from both sides of the Transwell filter membrane separately and added to 100 μL of acetonitrile comprising internal standard compound and mixed well, then centrifuged at 13000 rpm, 4° C. for 10 min, and finally 10 μL (or a specific volume) of supernatant was used for LC-MS/MS sample analysis.
(§4) For each compound, transport experiments in the A-B and B-A directions had three replicates, i.e. n=3.
(§5) LC-MS/MS Sample Analysis: The high performance liquid chromatography (HPLC) system used in this research consisted of two pumps (Shimadzu LC-20AD) and an autosampler (Shimadzu SIL-20AC). The HPLC system was connected in series with an API 4000 triple quadrupole mass spectrometer (Applied Biosystems). The API 4000 triple quadrupole mass spectrometer was equipped with an electrospray ionization (ESI) source. Ultrapurified nitrogen was used as curtain gas, GAS1, GAS2, and collision gas, at flow rates of 20 L/h, 55 L/h, 65 L/h, and 6 L/hr, respectively. The atomization temperature of the ion source was set to 500° C. Data was collected using the software Analyst 1.5.
(§6) Data analysis: The apparent permeability coefficient (Papp) can be calculated by the rate at which a compound permeates the monolayer of Caco-2 cells. Its value is related to the absorption of the compound in vivo. After concentrations at A side and B side were determined by LC-MS/MS, the Papp value in the A-B or B-A direction was calculated according to the following formula: Papp(A→B) or Papp(B→A)=(dQ/dt)/(A*C0)=(C2h*V)/(t*π2*C0)
(§7) In the above formula, dQ/dt is the permeation rate, i.e. the amount of compound that permeated in the dt time, C0 is the initial concentration of drug on the administration side, and A is the surface area of the cell monolayer, i.e. the membrane area.
(§8) After obtaining the Papp (A→B) and Papp (B→A) values of the compound, the Efflux Ratio (ER) of the compound could be calculated by the following formula: Efflux Ratio(ER)=Papp(B−A)/Papp(A−B).
(§9) When the ratio of efflux was >2, the compound could be considered as the substrate of the efflux transporter.

P-gp = assay: as above; conditions: human, Caco-2, pH 7.4; Concentration 10, Inhibitor − (without P-gp inhibitor GF120918); read-out: Efflux Ratio Papp (B→A)/Papp (A→B)
Experimental: as §1, §2, §3, §4, §5, §6, §7, §8, §9

Structure (SMILES): COCCOc1ccc2c(c1)ncn2-c1ccc(NC(=O)Nc2cc(C(C)(C)C)n[nH]2)cc1 [Compound 77, 1-(5-tert-butyl-2H-pyrazol-3-yl)-3-{4-[5-(2-methoxyl-ethoxyl)-benzimidazol-1-yl]-phenyl}-urea]
- Mean Binding Rate (rat plasma protein; Rats, concentration 2 uM): 99.54%
- Binding Rate (rat plasma protein; Rats, concentration 2 uM, single replicates): 99.46% and 99.58% and 99.60%
- binding rate to the rat plasma protein (rat plasma protein; dialysis, 4 h, 37° C., test substance 2 uM, positive control 1 uM): 99.54%
- Papp A→B at 2 h ([1]; Caco-2, pH 7.4, Caco-2 monolayer cell model, transmembrane permeability, read-out: Papp(A→B) value (conclusions under the table)): 1 to 10 ×10⁻⁶ cm/s
- Papp B→A at 2 h ([1]; Caco-2, pH 7.4, Concentration 10, Inhibitor − (without P-gp inhibitor GF120918)): 13.1 ×10⁻⁶ cm/s
- Papp A→B at 2 h ([1]; Caco-2, pH 7.4, Concentration 10, Inhibitor − (without P-gp inhibitor GF120918), read-out: Papp (A→B)): 2.24 ×10⁻⁶ cm/s
- efflux ratio at 2 h (P-gp): 5.8

Reference: patent US10647680B2, “Urea compound, preparation method therefor and medical use thereof” (Ancureall Pharmaceutical (Shanghai) Co., Ltd., priority 2016, dated 2020)
